Key:
[1] = molecular target: T1, HGF/MET system (Homo sapiens, UniProt P08581+P14210); assay: Phospho-MET ELISA; type: cell-based; design: key: − indicates that the compound failed to significantly augment MET phosphorylation; + indicates maximum potency at or above 100 nM; ++ indicates maximum potency at or above 10 nM; +++ indicates maximum potency at or above 1 nM; ++++ indicates maximum potency at or above 0.1 nM; settings: HEK293 cells, 1 ng/mL recombinant HGF, 15 minutes, pMET ELISA
T1 construct: HEK293 cells were prepared by passage into 6-well multi-plates; endogenous in cells; host or cells: HEK293
Method: Compounds were screened for potency towards the HGF/MET system using phospho-MET (pMET) ELISA kits (Cell Signaling). pMET levels were detected in samples having low (1 ng/mL) and high (10 ng/mL) concentrations of HGF.
HEK293 cells were prepared by passage into 6-well multi-plates and grown at 37° C. at 5% CO2 in DMEM+10% FBS until approximately 90% confluent. Cells were then starved for at least 8 hours in serum-free growth media.
Exemplary compounds were prepared in DMEM+0.1% FBS, diluted and added to treatment media with 1 ng/mL recombinant HGF protein (R&D Systems). Cells were incubated in triplicate at 37° C. and 5% CO2 for 15 minutes. Samples were then treated with 180 μL ice-cold RIPA (radioimmunoprecipitation assay) buffer and cells were lysed on ice for 15 minutes. Lysates were cleared by centrifugation at 16,000-g for 15 minutes and the supernatant was retained. Samples were normalized using a BCA assay of lysates to determine protein concentrations across the samples.
Between 50 and 100 μg total protein lysate was loaded into ELISA wells in pMET Sandwich ELISA kit (Cell Signaling Catalog #7227C), ensuring equal protein load in each well. The ELISA was processed according to manufacturer's instructions. After color developed, absorbance was read on an optical plate reader at 450 nm.
Potency measurements were determined using peak efficacy by scaling test compound dose treatments along a scale of 1-10 between 1 ng/mL and 10 ng/mL HGF doses according to the following formula: […]
where y is the normalized data-point, x is the raw data point, A is the mean HGF at 1 ng/mL, and B is the mean HGF at 10 ng/mL.

[2] = Turbidimetric solubility assay; type: physicochemical; settings: aqueous buffer, kinetic from dmso stock, PBS, 37° C., absorbance 620 nm
Method: Aqueous solubility is a critical drug property that helps to predict bioavailability. Generally, compounds with aqueous solubility <100 μg/ml are poor drugs.
To assess a compound's solubility by turbidity, test compounds were first dissolved in organic solvent (DMSO) at a concentration of 10 mM. This compound solution was then diluted in aqueous solvent (PBS) in a dilution series from […] in a 96-well assay plate. Solutions were incubated at 37° C. for 2 hours.
In wells with test compounds over their solubility limit, the compound will precipitate, effectively blocking the passage of light and thus increasing the absorbance signal of UV light at a wavelength of 620 nm. Compounds were considered insoluble at a tested concentration if turbidity raises the absorbance more than 10% above control reads.

[3] = test system: MDCK cells; assay: Cell scattering behavior assay; type: cell-based; design: key: − indicates that the compound failed to significantly promote cell scattering behavior; + indicates maximum potency at or above 100 nM; ++ indicates maximum potency at or above 10 nM; +++ indicates maximum potency at or above 1 nM; ++++ indicates maximum potency at or above 0.1 nM; settings: 5 ng/mL HGF, 24 hours, normalized particle count vs HGF alone
Method: MDCK cells were grown under normal conditions and observed to spontaneously form tight colonies as they proliferate. MDCK cells respond to HGF treatment by moving away from each other (scattering), which is quantified to assess the amount of HGF/MET activation in the cell population. In this experiment, MDCK cells were plated in a 96-well format, treated with HGF and exemplary compounds, fluorescently stained, imaged in large fields, and scattering behavior was quantified. Quantification was determined by analyzing the number of continuous groups of cells compared to the total stained area imaged (normalized particle counts).
MDCK cells were plated at low density in black-walled imaging plates and allowed to attach overnight at 37° C. and 5% CO2 in DMEM+10% FBS. Cells were then starved to 2 hours in DMEM without FBS (“starve media”). Samples containing exemplary compounds were prepared in DMEM without FBS and included 5 ng/mL HGF protein (“treatment media”). A control curve was also prepared for each plate using HGF concentrations of 0, 5, 10, and 20 ng/mL. Starve media was replaced with treatment media and cells were incubated for 24 hours at 37° C. and 5% CO2.
After incubation, cells were fixed by replacing treatment media with cold ethanol and incubating for 20 minutes at 4° C. Cells were then rehydrated by washing with PBS and then with stain solution (fluorescent wheat germ agglutinin; WGA488 at 20 μg/mL in PBS). Cells were incubated with stain solution 30 minutes at room temperature after which stain solution was replaced with fresh PBS.
Fields of cells were imaged using an iCyte high content imager in the green wavelength. Images were converted to binary and analyzed for particle size and particle count. For the purpose of analysis, an individual cell touching no other cells or separated colonies of cells were identified as particles, and particle counts were normalized by the total signal area to account for differences in cell number. […] Compound potency was assessed by statistical increase in normalized particle count compared to HGF treatment alone.

T1 sequence (P08581 308-1390 limits assumed): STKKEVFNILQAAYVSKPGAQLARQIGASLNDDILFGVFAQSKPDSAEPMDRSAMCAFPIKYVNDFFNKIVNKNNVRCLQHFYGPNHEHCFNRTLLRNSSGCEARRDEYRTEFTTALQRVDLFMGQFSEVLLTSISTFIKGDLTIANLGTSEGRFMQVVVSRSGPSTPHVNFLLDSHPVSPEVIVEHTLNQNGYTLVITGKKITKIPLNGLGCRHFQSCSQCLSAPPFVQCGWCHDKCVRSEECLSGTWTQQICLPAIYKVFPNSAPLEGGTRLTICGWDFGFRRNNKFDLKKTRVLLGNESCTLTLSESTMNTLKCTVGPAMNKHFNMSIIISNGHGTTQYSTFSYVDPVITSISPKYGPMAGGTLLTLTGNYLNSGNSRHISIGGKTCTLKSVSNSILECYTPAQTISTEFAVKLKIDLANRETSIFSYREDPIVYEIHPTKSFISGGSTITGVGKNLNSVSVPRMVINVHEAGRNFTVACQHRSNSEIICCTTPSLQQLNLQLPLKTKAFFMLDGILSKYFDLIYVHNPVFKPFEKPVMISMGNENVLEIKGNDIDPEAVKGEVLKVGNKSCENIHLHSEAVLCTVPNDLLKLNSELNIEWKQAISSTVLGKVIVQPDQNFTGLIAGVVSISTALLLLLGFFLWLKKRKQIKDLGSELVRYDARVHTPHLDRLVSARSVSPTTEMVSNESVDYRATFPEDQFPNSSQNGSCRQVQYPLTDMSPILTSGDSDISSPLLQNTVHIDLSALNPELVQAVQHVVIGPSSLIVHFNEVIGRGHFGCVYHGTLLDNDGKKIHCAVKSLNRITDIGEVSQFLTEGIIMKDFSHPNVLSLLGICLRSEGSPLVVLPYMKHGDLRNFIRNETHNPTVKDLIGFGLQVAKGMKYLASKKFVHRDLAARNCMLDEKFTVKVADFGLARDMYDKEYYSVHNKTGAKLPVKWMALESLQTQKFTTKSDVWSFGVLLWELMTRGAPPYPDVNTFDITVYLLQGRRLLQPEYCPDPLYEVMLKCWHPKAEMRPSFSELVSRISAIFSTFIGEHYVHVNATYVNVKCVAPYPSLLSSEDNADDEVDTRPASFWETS
T1 sequence (P14210 32-494 limits assumed): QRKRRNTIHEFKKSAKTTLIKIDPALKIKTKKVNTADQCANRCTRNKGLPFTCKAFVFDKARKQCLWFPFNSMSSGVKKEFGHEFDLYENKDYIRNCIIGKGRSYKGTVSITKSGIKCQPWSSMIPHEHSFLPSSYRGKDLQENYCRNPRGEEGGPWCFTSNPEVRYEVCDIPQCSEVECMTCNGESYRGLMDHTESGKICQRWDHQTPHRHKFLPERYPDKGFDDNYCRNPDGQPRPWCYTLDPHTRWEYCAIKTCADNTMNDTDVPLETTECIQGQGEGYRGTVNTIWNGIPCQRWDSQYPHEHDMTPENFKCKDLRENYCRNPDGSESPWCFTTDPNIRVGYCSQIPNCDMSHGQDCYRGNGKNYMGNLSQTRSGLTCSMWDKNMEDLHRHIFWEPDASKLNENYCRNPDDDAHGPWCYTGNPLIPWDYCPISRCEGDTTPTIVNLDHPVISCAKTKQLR

SMILES	Potency (augmentation of MET phosphorylation) [1]	solubility at 2 h [2] [µM]	Potency (cell scattering) [3]
CCCCN1CC2N(C(=O)c3ccc(C(F)(F)F)cc3)CCC(=O)N2C(C)C1=O (centres unmarked) [Compound 21]	−	> 300	−
CC(C)CN1CC2N(C(=O)c3ccc(C(F)(F)F)cc3)CCC(=O)N2C(C)C1=O (centres unmarked) [Compound 23]	−	> 300	−
CCC(C)CN1CC2N(C(=O)c3ccc(Cl)cc3)CCC(=O)N2C(C)C1=O (centres unmarked) [Compound 10, 1-(4-chlorobenzoyl)-6-methyl-8-(2-methylbutyl)hexahydro-4H-pyrazino[1,2-a]pyrimidine-4,7(6H)-dione]	−	> 300	−
CCC(C)CN1CC2N(Cc3ccc(C(F)(F)F)cc3)CCC(=O)N2C(CF)C1=O (centres unmarked) [Compound 48, 6-(fluoromethyl)-8-(2-methylbutyl)-1-(4-(trifluoromethyl)benzyl)hexahydro-4H-pyrazino[1,2-a]pyrimidine-4,7(6H)-dione]	−	> 100	
CC1C(=O)N(CC2CCCO2)CC2N(C(=O)c3ccc(OC(F)F)cc3)CCC(=O)N12 (centres unmarked) [Compound 27]	−	> 100	
C=CCCN1CC2N(Cc3ccc(OC(F)F)cc3)CCC(=O)N2C(C)C1=O (centres unmarked) [Compound 39]	−	> 300	−
CC1C(=O)N(CCC2CCCC2)CC2N(Cc3ccc(OC(F)F)cc3)CCC(=O)N12 (centres unmarked) [Compound 38]	−	> 100	
CCC(C)CN1CC2N(Cc3c[nH]c4ccccc34)CCC(=O)N2C(C)C1=O (centres unmarked) [Compound 44]	−	> 100	−
CC1C(=O)N(CC2CCCC2)CC2N(C(=O)c3ccc(OC(F)F)cc3)CCC(=O)N12 (centres unmarked) [Compound 13]	−	> 300	−
CC1C(=O)N(CC2CCCC2)CC2N(C(=O)c3ccc(C(F)(F)F)cc3)CCC(=O)N12 (centres unmarked) [Compound 15]	−	> 300	−
CCC(C)CN1CC2N(Cc3ccc(OC(F)F)cc3)CCC(=O)N2C(CF)C1=O (centres unmarked) [Compound 47, 1-(4-(difluoromethoxy)benzyl)-6-(fluoromethyl)-8-(2-methylbutyl)hexahydro-4H-pyrazino[1,2-a]pyrimidine-4,7(6H)-dione]	−	> 300	
CC1C(=O)N(CCC2CCCC2)CC2N(Cc3ccc(F)cc3)CCC(=O)N12 (centres unmarked) [Compound 46, 8-(2-cyclopentylethyl)-1-(4-fluorobenzyl)-6-methylhexahydro-4H-pyrazino[1,2-c]pyrimidine-4,7(6H)-dione]	−	> 300	−
CC(C)N1CC2N(C(=O)c3ccc(C(F)(F)F)cc3)CCC(=O)N2C(C)C1=O (centres unmarked) [Compound 24]	−	> 300	−
CC1C(=O)N(CCC2CCC2)CC2N(Cc3ccc(F)cc3)CCC(=O)N12 (centres unmarked) [Compound 45, 8-(2-cyclobutylethyl)-1-(4-fluorobenzyl)-6-methylhexahydro-4H-pyrazino[1,2-a]pyrimidine-4,7(6H)-dione]	−	> 300	
CC1C(=O)N(CCC2CCC2)CC2N(Cc3ccc(OC(F)F)cc3)CCC(=O)N12 (centres unmarked) [Compound 40]	−	> 300	
CCC(C)CN1CC2N(Cc3ccc(C(F)(F)F)c(Cl)c3)CCC(=O)N2C(C)C1=O (centres unmarked) [Compound 43]	−	> 100	−
CCCCN1CC2N(Cc3ccc(OC(F)F)cc3)CCC(=O)N2C(C)C1=O (centres unmarked) [Compound 41]	−	> 300	−

Further lines, with some results ahead:

Potency (augmentation of MET phosphorylation) [1]	solubility at 2 h [2] [µM]	SMILES	Potency (cell scattering) [3]
−	> 300	CC1C(=O)N(CCO)CC2N(C(=O)c3ccc(OC(F)F)cc3)CCC(=O)N12 (centres unmarked) [Compound 34, 1-(4-(difluoromethoxy)benzoyl)-8-(2-hydroxyethyl)-6-methylhexahydro-4H-pyrazino[1,2-a]pyrimidine-4,7(6H)-dione]	−
−	> 300	C=CCCN1CC2N(C(=O)c3ccc(OC(F)F)cc3)CCC(=O)N2C(C)C1=O (centres unmarked) [Compound 18]	−
−	> 300	CC1C(=O)N(CCc2cccs2)CC2N(C(=O)c3ccc(OC(F)F)cc3)CCC(=O)N12 (centres unmarked) [Compound 26]	−
−	> 100	CC1C(=O)N(CCc2ccccc2)CC2N(C(=O)c3ccc(OC(F)F)cc3)CCC(=O)N12 (centres unmarked) [Compound 28]	−
−	> 300	CC1C(=O)N(CCS(C)(=O)=O)CC2N(C(=O)c3ccc(OC(F)F)cc3)CCC(=O)N12 (centres unmarked) [Compound 36]	−
−	> 300	CC1C(=O)N(CCN)CC2N(C(=O)c3ccc(OC(F)F)cc3)CCC(=O)N12 (centres unmarked) [Compound 35, 8-(2-aminoethyl)-1-(4-(difluoromethoxy)benzoyl)-6-methylhexahydro-4H-pyrazino[1,2-a]pyrimidine-4,7(6H)-dione]	−
−	> 300	CC1C(=O)N(CCc2ccncc2)CC2N(C(=O)c3ccc(OC(F)F)cc3)CCC(=O)N12 (centres unmarked) [Compound 29]	
−	> 300	COCCN1CC2N(C(=O)c3ccc(OC(F)F)cc3)CCC(=O)N2C(C)C1=O (centres unmarked) [Compound 32]	−
−	> 300	COCCCN1CC2N(C(=O)c3ccc(OC(F)F)cc3)CCC(=O)N2C(C)C1=O (centres unmarked) [Compound 33]	−
−	> 300	CC1C(=O)N(CCC2CC2)CC2N(C(=O)c3ccc(OC(F)F)cc3)CCC(=O)N12 (centres unmarked) [Compound 31]	−
−	> 300	CC1C(=O)N(CCc2ccco2)CC2N(C(=O)c3ccc(OC(F)F)cc3)CCC(=O)N12 (centres unmarked) [Compound 25]	−
